Measurements: ChEMBL document CHEMBL1828557, “Biophysical and physicochemical methods differentiate highly ligand-efficient human D-amino acid oxidase inhibitors” (Eur J Med Chem, 2011)
In brackets after ≈: the same amount, converted by molar mass.

Legend:
[1] = Oral bioavailability (0 to last) in Wistar rat plasma at 10 mg/kg; format: ADME, organism-based
[2] = Volume of distribution in Wistar rat plasma at 1 mg/kg, iv; format: ADME, organism-based; parameters: dose 1 mg/kg, route intravenous
[3] = Octanol-water partition coefficient, log P of the neutral compound by pH-metric method; format: physicochemical
[4] = Plasma clearance in Swiss mouse plasma at 1 mg/kg, iv; format: ADME, organism-based; parameters: dose 1 mg/kg, route intravenous
[5] = Kinetic solubility of the compound in 0.01 M phosphate buffered saline at pH 7.4 assessed as minimum solubility after 2 hrs; format: physicochemical; conditions: read-out: Kinetic_solubility
[6] = Tmax in Swiss mouse brain at 10 mg/kg, po; format: ADME, organism-based; parameters: dose 10 mg/kg, route oral
[7] = Oral bioavailability (0 to last) in Swiss mouse plasma at 10 mg/kg; format: ADME, organism-based
[8] = Cmax in Wistar rat brain at 10 mg/kg, po; format: ADME, organism-based; parameters: dose 10 mg/kg, route oral
[9] = Cmax in Swiss mouse brain at 10 mg/kg, po; format: ADME, organism-based; parameters: dose 10 mg/kg, route oral
[10] = Dissociation constant, pKa of the compound by dip probe absorption spectroscopy technique; format: physicochemical
D-aspartate oxidase = target: T1, D-aspartate oxidase (Bos taurus, UniProt P31228); experiment: Inhibition of bovine recombinant DASPO expressed in Escherichia coli preincubated for 15 mins by fluorescence assay
T1 sequence (P31228 whole entry): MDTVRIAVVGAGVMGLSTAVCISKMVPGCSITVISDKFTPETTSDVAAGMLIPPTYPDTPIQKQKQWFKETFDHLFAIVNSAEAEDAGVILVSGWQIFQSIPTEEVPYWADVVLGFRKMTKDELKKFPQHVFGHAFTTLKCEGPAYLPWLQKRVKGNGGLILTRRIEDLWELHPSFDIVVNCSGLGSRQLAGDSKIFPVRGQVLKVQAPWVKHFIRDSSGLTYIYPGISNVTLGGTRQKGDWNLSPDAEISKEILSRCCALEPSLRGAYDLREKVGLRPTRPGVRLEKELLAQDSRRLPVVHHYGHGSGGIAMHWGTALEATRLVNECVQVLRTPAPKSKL

[11] = Tmax in Wistar rat brain at 10 mg/kg, po; format: ADME, organism-based; parameters: dose 10 mg/kg, route oral
[12] = Volume of distribution in Swiss mouse plasma at 1 mg/kg, iv; format: ADME, organism-based; parameters: dose 1 mg/kg, route intravenous
[13] = Thermodynamic solubility of the compound in phosphate buffer at pH 7.4 after 24 hrs by HPLC analysis; format: physicochemical; conditions: read-out: Therm_solubility
[14] = Kinetic solubility of the compound in 0.01 M phosphate buffered saline at pH 7.4 assessed as maximum solubility after 2 hrs; format: physicochemical; conditions: read-out: Kinetic_solubility
[15] = Intrinsic clearance in human liver microsomes; format: ADME, Microsome
[16] = Plasma clearance in Wistar rat plasma at 1 mg/kg, iv; format: ADME, organism-based; parameters: dose 1 mg/kg, route intravenous
[17] = Oral bioavailability (0 to last) in Wistar rat plasma at 30 mg/kg; format: ADME, organism-based
D-amino-acid oxidase [18] = target: T2, D-amino-acid oxidase (Homo sapiens, UniProt P14920); experiment: Binding affinity to human recombinant DAAO by isothermal titration calorimeter analysis
Target sequence in this assay (P14920 whole entry): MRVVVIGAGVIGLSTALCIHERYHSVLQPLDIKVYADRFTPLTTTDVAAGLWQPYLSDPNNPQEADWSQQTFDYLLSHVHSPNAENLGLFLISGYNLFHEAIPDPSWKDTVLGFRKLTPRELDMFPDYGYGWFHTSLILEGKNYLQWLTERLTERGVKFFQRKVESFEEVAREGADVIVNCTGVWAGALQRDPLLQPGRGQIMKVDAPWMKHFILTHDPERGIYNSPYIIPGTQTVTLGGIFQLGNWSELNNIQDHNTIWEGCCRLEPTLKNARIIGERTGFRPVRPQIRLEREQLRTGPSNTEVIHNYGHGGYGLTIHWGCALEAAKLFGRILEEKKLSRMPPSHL

[19] = Terminal half life in Swiss mouse brain at 30 mg/kg, po; format: ADME, organism-based; parameters: dose 30 mg/kg, route oral; conditions: read-out: beta t1/2 (converted)
[20] = Plasma clearance in Swiss mouse plasma at 10 mg/kg, iv; format: ADME, organism-based; parameters: dose 10 mg/kg, route intravenous
Brain [21] = experiment: AUC (0 to last) in Swiss mouse brain at 30 mg/kg, po; format: ADME, organism-based; parameters: time 0 - last, dose 30 mg/kg, route oral; conditions: in vivo
[22] = Ratio of drug level (0 to last) in brain to plasma in Wistar rat at 30 mg/kg, po; format: ADME, organism-based; parameters: dose 30 mg/kg, route oral; conditions: brain and plasma, read-out: BPR
[23] = Terminal half life in Wistar rat brain at 30 mg/kg, po; format: ADME, organism-based; parameters: dose 30 mg/kg, route oral; conditions: read-out: beta t1/2 (converted)
[24] = Cmax in Wistar rat brain at 30 mg/kg, po; format: ADME, organism-based; parameters: dose 30 mg/kg, route oral
[25] = Plasma clearance in Wistar rat plasma at 10 mg/kg, iv; format: ADME, organism-based; parameters: dose 10 mg/kg, route intravenous
D-amino-acid oxidase [26] = target: T2, D-amino-acid oxidase; experiment: Inhibition of human DAAO
Target sequence in this assay (P14920 whole entry): as above

[27] = Cmax in Swiss mouse brain at 30 mg/kg, po; format: ADME, organism-based; parameters: dose 30 mg/kg, route oral
[28] = Oral bioavailability (0 to last) in Swiss mouse plasma at 30 mg/kg; format: ADME, organism-based
[29] = Tmax in Wistar rat brain at 30 mg/kg, po; format: ADME, organism-based; parameters: dose 30 mg/kg, route oral
D-amino-acid oxidase [30] = target: T2, D-amino-acid oxidase; experiment: Binding affinity to human recombinant DAAO by kinetic study scintillation proximity assay
Target sequence in this assay (P14920 whole entry): as above

[31] = Ratio of drug level (0 to last) in brain to plasma in Swiss mouse at 30 mg/kg, po; format: ADME, organism-based; parameters: dose 30 mg/kg, route oral; conditions: brain and plasma, read-out: BPR
[32] = Volume of distribution in Swiss mouse plasma at 10 mg/kg, iv; format: ADME, organism-based; parameters: dose 10 mg/kg, route intravenous
[33] = Tmax in Swiss mouse brain at 30 mg/kg, po; format: ADME, organism-based; parameters: dose 30 mg/kg, route oral
Brain [34] = experiment: AUC (0 to last) in Wistar rat brain at 30 mg/kg, po; format: ADME, organism-based; parameters: time 0 - last, dose 30 mg/kg, route oral; conditions: in vivo
[35] = Volume of distribution in Wistar rat plasma at 10 mg/kg, iv; format: ADME, organism-based; parameters: dose 10 mg/kg, route intravenous
D-amino-acid oxidase [36] = target: T2, D-amino-acid oxidase; experiment: Inhibition of human recombinant DAAO expressed in Escherichia coli assessed as H2O2 production from D-serine degradation after 30 mins by fluorescence assay
Target sequence in this assay (P14920 whole entry): as above

[37] = Apparent permeability from apical to basolateral side of MDCK cells expressing MDR1 by LC-MS/MS analysis; format: ADME, cell-based, Canis lupus familiaris; conditions: dog
Brain [38] = experiment: AUC (0 to last) in Swiss mouse brain at 10 mg/kg, po; format: ADME, organism-based; parameters: time 0 - last, dose 10 mg/kg, route oral; conditions: in vivo
[39] = Terminal half life in Wistar rat brain at 10 mg/kg, po; format: ADME, organism-based; parameters: dose 10 mg/kg, route oral; conditions: read-out: beta t1/2 (converted)
D-amino-acid oxidase [40] = target: T2, D-amino-acid oxidase
Target sequence in this assay (P14920 whole entry, looked up): as the sequence (P14920 whole entry) above

[41] = Apparent permeability across apical to basolateral side in human Caco2 cells by LC-MS/MS analysis; format: ADME, cell-based; conditions: Caco-2
[42] = Ratio of drug level (0 to last) in brain to plasma in Wistar rat at 10 mg/kg, po; format: ADME, organism-based; parameters: dose 10 mg/kg, route oral; conditions: brain and plasma, read-out: BPR
[43] = Terminal half life in Swiss mouse brain at 10 mg/kg, po; format: ADME, organism-based; parameters: dose 10 mg/kg, route oral; conditions: read-out: beta t1/2 (converted)
Brain [44] = experiment: AUC (0 to last) in Wistar rat brain at 10 mg/kg, po; format: ADME, organism-based; parameters: dose 10 mg/kg, route oral, time 0 - last; conditions: in vivo
[45] = Ratio of drug level (0 to last) in brain to plasma in Swiss mouse at 10 mg/kg, po; format: ADME, organism-based; parameters: dose 10 mg/kg, route oral; conditions: brain and plasma, read-out: BPR
D-amino-acid oxidase [46] = target: T2, D-amino-acid oxidase; experiment: Binding affinity to human recombinant DAAO by steady state study scintillation proximity assay
Target sequence in this assay (P14920 whole entry): as above

[47] = target: Voltage-gated inwardly rectifying potassium channel KCNH2 (Homo sapiens, UniProt Q12809); experiment: Inhibition of human ERG expressed in HEK293 cells by whole cell voltage patch clamp technique; format: cell-based
Chain of Voltage-gated inwardly rectifying potassium channel KCNH2 (Q12809 whole entry): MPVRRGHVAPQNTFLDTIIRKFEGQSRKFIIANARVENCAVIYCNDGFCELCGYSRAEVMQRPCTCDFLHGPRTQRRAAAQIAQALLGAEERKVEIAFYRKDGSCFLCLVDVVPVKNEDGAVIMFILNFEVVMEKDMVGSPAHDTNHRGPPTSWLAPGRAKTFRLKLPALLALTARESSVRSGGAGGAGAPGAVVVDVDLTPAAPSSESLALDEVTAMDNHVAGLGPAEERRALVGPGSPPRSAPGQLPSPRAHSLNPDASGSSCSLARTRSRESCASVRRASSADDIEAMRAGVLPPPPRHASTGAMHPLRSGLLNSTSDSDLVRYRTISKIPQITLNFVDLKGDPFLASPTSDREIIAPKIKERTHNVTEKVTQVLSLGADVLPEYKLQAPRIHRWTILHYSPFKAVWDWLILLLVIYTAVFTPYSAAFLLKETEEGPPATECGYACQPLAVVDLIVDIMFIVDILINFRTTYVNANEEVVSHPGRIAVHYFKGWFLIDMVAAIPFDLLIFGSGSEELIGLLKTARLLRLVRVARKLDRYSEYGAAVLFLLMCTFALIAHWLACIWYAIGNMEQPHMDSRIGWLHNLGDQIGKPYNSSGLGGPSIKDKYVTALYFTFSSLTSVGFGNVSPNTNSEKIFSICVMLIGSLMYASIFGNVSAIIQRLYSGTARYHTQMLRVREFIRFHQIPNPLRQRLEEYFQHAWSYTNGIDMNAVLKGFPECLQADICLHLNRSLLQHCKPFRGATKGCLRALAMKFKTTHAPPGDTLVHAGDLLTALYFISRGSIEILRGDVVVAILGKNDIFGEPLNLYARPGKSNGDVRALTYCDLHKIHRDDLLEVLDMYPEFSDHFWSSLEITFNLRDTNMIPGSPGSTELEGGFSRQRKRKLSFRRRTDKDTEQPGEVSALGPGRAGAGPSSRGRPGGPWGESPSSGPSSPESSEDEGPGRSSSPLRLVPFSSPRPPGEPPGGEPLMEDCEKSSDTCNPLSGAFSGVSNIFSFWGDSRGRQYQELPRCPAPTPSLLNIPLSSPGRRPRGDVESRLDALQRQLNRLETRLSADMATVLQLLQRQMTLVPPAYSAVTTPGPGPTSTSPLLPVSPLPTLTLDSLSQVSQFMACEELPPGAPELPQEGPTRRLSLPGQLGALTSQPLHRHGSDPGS

Row | Structure (SMILES) | bioavailability [1] | Vd [2] | logP [3] | clearance [4] | solubility kinetic at 2 h [5] | Tmax [6] | bioavailability [7] | Cmax [8] | Cmax [9] | pKa [10] | IC50 (D-aspartate oxidase) | Tmax [11] | Vd [12] | solubility thermodynamic at 24 h [13] | solubility kinetic at 2 h [14] | microsomal CLint [15] | clearance [16] | AUClast (Brain [38]) | half-life [39] | T1/2 (D-amino-acid oxidase [40]) | also measured
1 | O=c1[nH]c2ccc(F)c(Cl)c2cc1O | 2% | 0.3 L/kg | 2.7 | 45 mL/min/kg | 3 µM (≈ 0.641 µg/mL) | 15 min | 3% | 17.9 ng/mL | 12.1 ng/mL | 7.33 | > 10 µM | 30 min | 0.5 L/kg | 71 µM (≈ 15.2 µg/mL) | 65 µM (≈ 13.9 µg/mL) | 183 µL/min/mg | 28 mL/min/kg | – | – | – | –
2 | O=c1[nH]c2cccc(Cl)c2cc1O | 1.4% | 0.3 L/kg | 2.57 | 44 mL/min/kg | 17 µM (≈ 3.33 µg/mL) | 15 min | 0.65% | – | 11.7 ng/mL | 7.6 | > 10 µM | – | 0.3 L/kg | 31 µM (≈ 6.06 µg/mL) | 55 µM (≈ 10.8 µg/mL) | 308 µL/min/mg | 30 mL/min/kg | – | – | > 120 min | –
3 | Oc1noc2cc(Cl)ccc12 | 28% | 0.3 L/kg | 2.68 | 10 mL/min/kg | 100 µM (≈ 17 µg/mL) | 15 min | 29% | 319 ng/mL | 228 ng/mL | 4.07 | > 10 µM | 30 min | 0.2 L/kg | 433 µM (≈ 73.4 µg/mL) | > 100 µM | 4.7 µL/min/mg | 5 mL/min/kg | 139 ng·h/mL | 120 min | 10 min | Papp A→B [37]: 75 ×10⁻⁶ cm/s; IC50 [47]: > 10 µM; Papp A→B [41]: 77 ×10⁻⁶ cm/s; Kp [42]: 0.04; half-life [43]: 60 min; AUClast (Brain [44]): 340 ng·h/mL; Kp [45]: 0.03

Second part, led by results:

Row | bioavailability [1] | Vd [2] | logP [3] | clearance [4] | solubility kinetic at 2 h [5] | Tmax [6] | bioavailability [7] | Cmax [8] | Cmax [9] | pKa [10] | IC50 (D-aspartate oxidase) | Tmax [11] | Vd [12] | solubility thermodynamic at 24 h [13] | solubility kinetic at 2 h [14] | microsomal CLint [15] | clearance [16] | AUClast (Brain [38]) | half-life [39] | T1/2 (D-amino-acid oxidase [40]) | Structure (SMILES) | also measured
4 | – | – | 0.45 | – | 100 µM (≈ 12.6 µg/mL) | – | – | – | – | 3.59 | > 10 µM | – | – | > 460 µM | > 100 µM | – | – | – | – | – | Cc1cc(C(=O)O)n[nH]1 | bioavailability [17]: 97%; Kd (D-amino-acid oxidase [18]): 617 nM; half-life [19]: 60 min; clearance [20]: 10 mL/min/kg; AUClast (Brain [21]): 831 ng·h/mL; Kp [22]: 0.04; half-life [23]: 180 min; Cmax [24]: 112 ng/mL; clearance [25]: 11 mL/min/kg; IC50 (D-amino-acid oxidase [26]): 910 nM; Cmax [27]: 359 ng/mL; bioavailability [28]: 33%; Tmax [29]: 1 h; Kd (D-amino-acid oxidase [30]): 900 nM; Kp [31]: 0.1; Vd [32]: 0.4 L/kg; Tmax [33]: 30 min; AUClast (Brain [34]): 631 ng·h/mL; Vd [35]: 3.5 L/kg; IC50 (D-amino-acid oxidase [36]): 473 nM
5 | 100% | 2.1 L/kg | 2.11 | 21 mL/min/kg | 100 µM (≈ 16.7 µg/mL) | 15 min | 56% | 648 ng/mL | 336 ng/mL | 3.88 | > 10 µM | 60 min | 0.4 L/kg | > 460 µM | > 100 µM | – | 9 mL/min/kg | 302 ng·h/mL | 120 min | 10 min | O=C(O)c1cc2sccc2[nH]1 | Kd (D-amino-acid oxidase [18]): 19 nM; Papp A→B [37]: 6 ×10⁻⁶ cm/s; Papp A→B [41]: 47 ×10⁻⁶ cm/s; Kp [42]: 0.05; IC50 (D-amino-acid oxidase [26]): 145 nM; half-life [43]: 60 min; AUClast (Brain [44]): 1940 ng·h/mL; Kd (D-amino-acid oxidase [30]): 6 nM; Kp [45]: 0.06; Kd (D-amino-acid oxidase [46]): 33 nM; IC50 (D-amino-acid oxidase [36]): 11.9 nM
6 | 52% | 0.4 L/kg | 1.56 | 15 mL/min/kg | 100 µM (≈ 15.1 µg/mL) | 15 min | 42% | 889 ng/mL | 487 ng/mL | 4.09 | > 10 µM | 30 min | 0.8 L/kg | 428 µM (≈ 64.7 µg/mL) | > 100 µM | – | 4 mL/min/kg | 371 ng·h/mL | 120 min | 10 min | O=C(O)c1cc2occc2[nH]1 | IC50 [47]: > 10 µM; Kp [42]: 0.08; half-life [43]: 30 min; AUClast (Brain [44]): 1520 ng·h/mL; Kp [45]: 0.08
